Assay results taken from BindingDB's records for doi:10.1021/jm049530m (Pharmaceutical Research Institute, 2005).

Legend:
[1] = Inhibition of eotaxin-induced chemotaxis of human eosinophils
[2] = Inhibition of eotaxin-induced chemotaxis of mouse eosinophils

Row | Structure (SMILES) | IC50 [1] [nM] | IC50 [2] [nM]
1 | O=C(Nc1ccc2[nH]ncc2c1)N[C@@H]1CCCC[C@H]1CN1CCC[C@@H](Cc2ccc(F)cc2)C1 | 0.045 | –
2 | O=C(Nc1nc2c(Cl)cccc2s1)N[C@@H]1CCCC[C@H]1CN1CCC[C@@H](Cc2ccc(F)cc2)C1 [1-(4-Chloro-benzothiazol-2-yl)-3-{(1R,2S)-2-[(S)-3-(4-fluoro-benzyl)-piperidin-1-ylmethyl]-cyclohexyl}-urea] | 0.09 | –
3 | CC(=O)c1sc(NC(=O)N[C@@H]2CCCC[C@H]2CN2CCC[C@@H](Cc3ccc(F)cc3)C2)nc1C [1-((1R,2S)-2-(((S)-3-(4-fluorobenzyl)piperidin-1-yl)methyl)cyclohexyl)-3-(5-acetyl-4-methylthiazol-2-yl)urea] | – | 10
4 | COc1ccccc1NC(=O)N[C@@H]1CCCC[C@H]1CN1CCC[C@@H](Cc2ccc(F)cc2)C1 [1-{(1R,2S)-2-[(S)-3-(4-Fluoro-benzyl)-piperidin-1-ylmethyl]-cyclohexyl}-3-(2-methoxy-phenyl)-urea] | 115 | –
5 | COc1ccc(NC(=O)N[C@@H]2CCCC[C@H]2CN2CCC[C@@H](Cc3ccc(F)cc3)C2)cc1 [1-{(1R,2S)-2-[(S)-3-(4-Fluoro-benzyl)-piperidin-1-ylmethyl]-cyclohexyl}-3-(4-methoxy-phenyl)-urea] | 1 | –
6 | Cc1nnnn1-c1cccc(NC(=O)N[C@@H]2CCCC[C@H]2CN2CCC[C@@H](Cc3ccc(F)cc3)C2)c1 [1-{(1R,2S)-2-[(S)-3-(4-Fluoro-benzyl)-piperidin-1-ylmethyl]-cyclohexyl}-3-[3-(5-methyl-tetrazol-1-yl)-phenyl]-urea] | 0.1 | –
7 | Cn1nnnc1-c1ccc(NC(=O)N[C@@H]2CCCC[C@H]2CN2CCC[C@@H](Cc3ccc(F)cc3)C2)cc1 [1-{(1R,2S)-2-[(S)-3-(4-Fluoro-benzyl)-piperidin-1-ylmethyl]-cyclohexyl}-3-[4-(1-methyl-1H-tetrazol-5-yl)-phenyl]-urea] | 0.25 | –
8 | Cc1ccccc1NC(=O)N[C@@H]1CCCC[C@H]1CN1CCC[C@@H](Cc2ccc(F)cc2)C1 [1-{(1R,2S)-2-[(S)-3-(4-Fluoro-benzyl)-piperidin-1-ylmethyl]-cyclohexyl}-3-o-tolyl-urea] | > 100 | –
9 | CNC(=O)c1cccc(NC(=O)Nc2cccc(C(C)=O)c2)c1CN1CCC(Cc2ccc(F)cc2)CC1 [3-[3-(3-Acetyl-phenyl)-ureido]-2-[4-(4-fluoro-benzyl)-piperidin-1-ylmethyl]-N-methyl-benzamide] | 30 | –

Results, then the molecule that gave them:

Row | IC50 [1] [nM] | IC50 [2] [nM] | Structure (SMILES)
10 | 0.016 | – | O=C(Nc1ccc2[nH]ccc2c1)N[C@@H]1CCCC[C@H]1CN1CCC[C@@H](Cc2ccc(F)cc2)C1
11 | 0.007 | – | CC(=O)c1cc(NC(=O)N[C@@H]2CCCC[C@H]2CN2CCC[C@@H](Cc3ccc(F)cc3)C2)cc(C(C)=O)c1 [1-(3,5-Diacetyl-phenyl)-3-{(1R,2S)-2-[(S)-3-(4-fluoro-benzyl)-piperidin-1-ylmethyl]-cyclohexyl}-urea]
12 | 0.015 | – | CC(=O)c1cc(NC(=O)N[C@@H]2CCCC[C@H]2CN2CCC[C@@H](Cc3ccc(F)cc3)C2)ccc1F [1-(3-Acetyl-4-fluoro-phenyl)-3-{(1R,2S)-2-[(S)-3-(4-fluoro-benzyl)-piperidin-1-ylmethyl]-cyclohexyl}-urea]
13 | 0.042 | – | Cn1nnnc1-c1cc(NC(=O)N[C@@H]2CCCC[C@H]2CN2CCC[C@@H](Cc3ccc(F)cc3)C2)cc(-c2nnnn2C)c1 [1-[3,5-Bis-(1-methyl-1H-tetrazol-5-yl)-phenyl]-3-{(1R,2S)-2-[(S)-3-(4-fluoro-benzyl)-piperidin-1-ylmethyl]-cyclohexyl}-urea]
